In brackets after ≈: the same amount, converted by molar mass. Where two headings read alike, the source gives them in different places.
Legend:
Test in all cases: MIC (Minimum Inhibitory Concentration)
Format in all cases: cell-based
[1] = system: Proteus morganii; conditions: Morganella morganii; Proteus morganii 2241
[2] = system: Trichophyton schoenleinii; conditions: Trichophyton schoenleinii 435-63; read-out: MIC values
[3] = system: Penicillium veridicatum; conditions: Penicillium veridicatum A 2370
[4] = system: Aspergillus flavus; conditions: Aspergillus flavus A 2385
[5] = system: Trichophyton mentagrophytus
[6] = system: Penicillium patalum; conditions: Penicillium patalum A 2389
[7] = system: Trichophyton rubrum
[8] = system: Aspergillus parasiticus
[9] = system: Candida albicans
[10] = system: Penicillium italicum; conditions: Penicillium italicum 278-65
[11] = system: Aspergillus versiodor; conditions: Aspergillus versiodor Nr. 7
[12] = system: Staphylococcus aureus
[13] = system: Pasteurella multocida; conditions: Pasteurella multocida A 723; read-out: MIC values
[14] = system: Trichophyton tonsurans; conditions: Trichophyton tonsurans 561-50; read-out: MIC values
[15] = system: Fusarium; conditions: Fusarium A 3241
[16] = system: Rhizoctonia solani; conditions: Rhizoctonia solani 200-25; read-out: MIC values
[17] = system: Bacillus subtilis; conditions: ATCC6633; Bacillus subtilis ATCC 6633
[18] = system: Trichophyton quickeaneum; conditions: Trichophyton quickeaneum A 2040; read-out: MIC values
[19] = system: Trichophyton soudanese joyeux; conditions: Trichophyton soudanese joyeux 440-63; read-out: MIC values
[20] = system: Penicillium rubrum; conditions: Talaromyces ruber; Penicillium rubrum A 2395
[21] = system: Trichophyton violoceum; conditions: Trichophyton violoceum 442-62; read-out: MIC values
[22] = system: Penicillium islandicum; conditions: Talaromyces islandicus; Penicillium islandicum D 189
[23] = system: Diplococcus pneumoniae; conditions: Streptococcus pneumoniae; Diplococcus pneumoniae A 2783
[24] = system: Trichophyton verrucosum
[25] = system: Trichophyton equinum

With [C-]#[N+]C(=C(C)c1ccco1)S(=O)(=O)c1ccc(C)cc1 [Example 13, 1-isocyano-2-(2-furanyl)-1-(4-toluenesulphonyl)-1-propene] the MIC [1] was 12.5 mg/L (≈ 43.5 µM), the MIC [2] was 3 mg/L (≈ 10.4 µM) and the MIC [3] was 3 mg/L (≈ 10.4 µM). For the same compound, the MIC [4] was 12.5 mg/L (≈ 43.5 µM), the MIC ([5]; Trichophyton mentagrophytus 367-68, read-out: MIC values) was 3 mg/L (≈ 10.4 µM) and the MIC ([5]; Trichophyton mentagrophytus 421-67, read-out: MIC values) was 3 mg/L (≈ 10.4 µM). It also gave an MIC ([5]; Trichophyton mentagrophytus A 3252, read-out: MIC values) of 3 mg/L (≈ 10.4 µM), an MIC ([5]; Trichophyton mentagrophytus R 177, read-out: MIC values) of 3 mg/L (≈ 10.4 µM) and an MIC ([5]; Trichophyton mentagrophytus R 178, read-out: MIC values) of 12.5 mg/L (≈ 43.5 µM). It also gave an MIC ([5]; Trichophyton mentagrophytus RRL 305, read-out: MIC values) of 3 mg/L (≈ 10.4 µM), an MIC [6] of 25 mg/L (≈ 87 µM) and an MIC ([7]; Trichophyton rubrum 218-65, read-out: MIC values) of 0.8 mg/L (≈ 2.78 µM). For the same compound, the MIC ([7]; Trichophyton rubrum 494-62, read-out: MIC values) was 0.8 mg/L (≈ 2.78 µM), the MIC ([7]; Trichophyton rubrum A 810, read-out: MIC values) was 0.8 mg/L (≈ 2.78 µM) and the MIC ([8]; Aspergillus parasiticus A 2396) was 6 mg/L (≈ 20.9 µM). It also gave an MIC values ([8]; Aspergillus parasiticus A 2397) of 6 mg/L (≈ 20.9 µM), an MIC ([9]; Candida albicans A 7, read-out: MIC values) of 0.1 mg/L (≈ 0.348 µM) and an MIC ([9]; Candida albicans A 3140, read-out: MIC values) of 0.2 mg/L (≈ 0.696 µM). It also gave an MIC ([9]; Candida albicans A 3141, read-out: MIC values) of less than 0.05 mg/L, an MIC ([9]; Candida albicans A 3144, read-out: MIC values) of 0.2 mg/L (≈ 0.696 µM) and an MIC ([9]; Candida albicans A 3145, read-out: MIC values) of less than 0.05 mg/L. The MIC ([9]; Candida albicans A 3165, read-out: MIC values) was 1.5 mg/L (≈ 5.22 µM), the MIC ([9]; Candida albicans A 3167, read-out: MIC values) was 0.4 mg/L (≈ 1.39 µM) and the MIC ([9]; Candida albicans A 3168, read-out: MIC values) was 0.2 mg/L (≈ 0.696 µM). The MIC ([9]; Candida albicans A 3169, read-out: MIC values) was 0.2 mg/L (≈ 0.696 µM), the MIC ([9]; Candida albicans A 3171, read-out: MIC values) was less than 0.05 mg/L and the MIC ([9]; Candida albicans A 3190, read-out: MIC values) was less than 0.05 mg/L. The MIC ([9]; Candida albicans A 3191, read-out: MIC values) was less than 0.05 mg/L, the MIC ([9]; Candida albicans A 3194, read-out: MIC values) was less than 0.05 mg/L and the MIC ([9]; Candida albicans A 3196, read-out: MIC values) was less than 0.05 mg/L. The MIC [10] was 3 mg/L (≈ 10.4 µM), the MIC [11] was greater than 100 mg/L and the MIC ([12]; Staphylococcus aureus A 321) was 12.5 mg/L (≈ 43.5 µM). The MIC ([12]; Staphylococcus aureus A 355) was 6 mg/L (≈ 20.9 µM), the MIC ([12]; Staphylococcus aureus A 2000) was 6 mg/L (≈ 20.9 µM) and the MIC [13] was 0.75 mg/L (≈ 2.61 µM). For the same compound, the MIC [14] was 3 mg/L (≈ 10.4 µM), the MIC [15] was 50 mg/L (≈ 174 µM) and the MIC [16] was 6 mg/L (≈ 20.9 µM). It also gave an MIC [17] of 1.5 mg/L (≈ 5.22 µM), an MIC [18] of 0.4 mg/L (≈ 1.39 µM) and an MIC [19] of 6 mg/L (≈ 20.9 µM). It also gave an MIC [20] of 25 mg/L (≈ 87 µM), an MIC [21] of 3 mg/L (≈ 10.4 µM) and an MIC [22] of 12.5 mg/L (≈ 43.5 µM). For the same compound, the MIC [23] was 12.5 mg/L (≈ 43.5 µM), the MIC ([24]; Trichophyton verrucosum 134-66, read-out: MIC values) was 0.8 mg/L (≈ 2.78 µM) and the MIC ([24]; Trichophyton verrucosum A 2922, read-out: MIC values) was 3 mg/L (≈ 10.4 µM). The MIC ([25]; Trichophyton equinum 182-76, read-out: MIC values) was 1.5 mg/L (≈ 5.22 µM) and the MIC ([25]; Trichophyton equinum 856-71, read-out: MIC values) was 0.1 mg/L (≈ 0.348 µM).
